Several values for one entry are separate records, joined by “and”; a condition that tells them apart may be missing. Equal entries are not always repeated. Ends that are not written are not given here. Peptide text beside a SMILES is read from it.
What was measured:
[1] = tested on: Plasmodium gallinaceum mature sporozoites; test: Effect of the peptides on salivary gland-derived Plasmodium gallinaceum sporozoites (membrane permeability, propidium iodide fluorescence); format: cell-based; settings: 60 μmol L^−1 peptide in PBS, 37 °C, 1 h, fluorescence microscopy, mean, n = 9
Protocol: Nine-thousand P. gallinaceum mature sporozoites were recovered from the salivary glands of Ae. aegypti and incubated in 50 μL of the PBS solution, with 40 μmol L^−1 digitonin (positive control), 60 μmol L^−1 peptides or negative controls, at 37 °C for 1 h. Cell membrane integrity was then monitored using a Carl Zeiss inverted fluorescence microscope (model Observer Axio Vision A.1) coupled to an image capture Zeiss AxioCam HR digital camera (1300 × 1030 pixels resolution and 8-bit quantization) after addition of 1 μL of the propidium iodide aqueous solution (200 μmol L^−1) in 5 μL of total solution volume. Images were obtained using a 40× objective lens and a green filter effect in red. The spectral range was set with the excitation at 538 nm within the visible spectrum in order to produce orange-red fluorescence centered at 619 nm, which was processed using the Axio 4.7 software.
The effect of the peptides on sporozoites was determined in vitro by fluorescence microscopy after one hour of incubation of the parasites with each peptide in the presence of propidium iodide (see Additional file 1). The results are reported as the per cent of fluorescent sporozoites. The analyses were carried out in triplicate using three different mosquito batches and a total of nine experiments were performed (n = 9). The effects of the peptides on P. gallinaceum sporozoites in vitro assay presented 64–94 % activity.
Fig. 2 Effects of peptides on membrane permeability expressed as the per cent of fluorescent mature sporozoites (mean ± standard deviation, n = 9). […] Positive control group (+): digitonin/PBS; negative control group (−): PBS.
Nine-thousand P. gallinaceum mature sporozoites were recovered from the salivary glands of Ae. aegypti and incubated in 50 µL of the PBS solution, with 40 μmol L^–1 digitonin (positive control), 60 μmol L^–1 peptides or negative controls, at 37 °C for one hour. Cell membrane integrity was then monitored using a Carl Zeiss inverted fluorescence microscope (model Observer Axio Vision A.1) coupled to an image capture Zeiss AxioCam HR digital camera (1,300 x 1,030 pixels resolution and 8-bit quantization) after addition of 1 µL of the propidium iodide aqueous solution (200 µmol L^–1) in 5 μL of total solution volume. Images were obtained using a 40X objective lens and a green filter effect in red. The spectral range was set with the excitation at 538 nm within the visible spectrum in order to produce orange-red fluorescence centered at 619 nm, which was processed using the Axio 4.7 software.

[2] = not given; remark: listed apart in the source
[3] = tested on: Plasmodium falciparum W2 strain, erythrocytic cycle; settings: read-out: IC50, suppression of erythrocytic invasion (rings formed) by P. falciparum; seven concentrations 10^−4 to 10^−14 mol L^−1, 24 h; non-linear regression, GraphPad Prism; n = 2
Description: The erythrocytic cycle of Plasmodiumfalciparum was maintained in vitro by culturing W2 strains in 1640 medium, supplemented with A-type human blood and serum, as described in Saraiva et al. [6].
Sorbitol solution (5 %) was used to synchronize parasite cultures into the ring stage, according to Lambros and Vanderberg [18]. The resistant ring-forms are subsequently maintained in culture as described above. Erythrocytes infected by parasite mature forms at 2–3 % parasitaemia and 5 % haematocrit were kept in the presence or absence of 10^−8 mol L^−1 synthetic peptides, for 24 h. Invasion is assessed by the appearance of new ring forms. The percentage of invasion was determined by optical microscopy (1000× magnification). It represents the total number of cells infected by rings in 100 erythrocytes in at least ten random microscopic fields. The invasion assay was carried out using two different cell suspension and generated equivalent results
The IC50 values were calculated by using GraphPad Prism Software version 5.00 for Windows (GraphPad, San Diego, California, USA). Parameters: Nonlinear Regression; log (inhibitor) vs. response equation was chosen at least square (ordinary) fit method was applied. […]

[4] = not given; remark: listed apart in the source
[5] = not given; remark: listed apart in the source
[6] = tested on: non-infected human erythrocytes; format: cell-based
Protocol: The MHC of the peptides were assessed through the measurement of haemoglobin released by non-infected human erythrocytes in the presence of increasing concentrations of the compounds in the same culture conditions of the invasion assay. As described by Jin-Jiang, MHC is the highest peptide concentration that causes no detectable release of haemoglobin.

[7] = tested on: P. gallinaceum sporozoite; settings: cited from earlier work; for biological (antiplasmodial) activity on P. gallinaceum sporozoites: Ala-replacement / deletion analogues and short peptides; for antiplasmodial activity against P. gallinaceum sporozoite: lactam bridged Ang II analogues
Description: Chamlian et al. studied some lactam bridged Ang II analogues, which presented Asp and Lys insertion in order to restrict the peptide. […] They replaced each amino acid by Ala or deleted the residues of the native Ang II molecule. The biological activities of the analogues […]and […]on the P. gallinaceum sporozoites were equipotent to native Ang II [4], 75 and 79 % of activity, respectively.

[8] = tested on: uninfected human erythrocytes; format: cell-based
Protocol: The haemolytic effect of analogs 5 and 6 was determined in uninfected erythrocytes. Cells were maintained in the same culture conditions in the presence of 10^−8 mol L^−1 peptides, for 24 h. Erythrocytes were centrifuged at 900g/8 min and free haemoglobin in the supernatant was assessed by spectrophotometer at 550 nm. Untreated cells were used as negative control to discount non-specific haemolysis. The haemolytic activity was expressed as percentage of the control. This positive control (100 % haemolysis) was prepared by treating the erythrocytes with distilled water.
The effects of the Ang II, peptides 5 and 6 in the erythrocyte human cells to define the haemolysis were seeded in a 96-well plate in the absence (control) or presence of 10^−8 mol L^−1 of the analogues, as already described.
Fig. 5 Haemolytic assay of human red blood cells were treated with distilled water; uninfected erythrocytes were kept in the same conditions used in the invasion assay with a control and each peptides tested (10^−8 mol L^−1), at 37 °C for 24 h. After incubation, the supernatant was collected, clarified at 900 g/8 min and the haemoglobin content was detected in a spectrophotometer at […]. Triple asterisk statistically significant compared with distilled water value p < 0.05.

[9] = not given; remark: listed apart in the source
[10] = tested on: P. falciparum red blood cells; settings: cited from earlier work
Description: Saraiva et al. described studies that aimed to identify the molecular mechanisms induced by Ang II, which are involved in the modulation of P. falciparum erythrocytic cycle. […] Torres et al. studied the influence of restrict peptides in P. falciparum red blood cells.

Compound: DRVYHIPF [Peptide 1, [Ile^6,His^5]-AII]
- per cent of fluorescent mature sporozoites (Spz Fluorescence, antiplasmodial activity) [1]: 94%

Compound: CC[C@H](C)[C@H](NC(=O)[C@@H](N)C(C)C)C(=O)N1CCC[C@H]1C(=O)N[C@@H](Cc1ccccc1)C(=O)O [Peptide 6, des-Asp^1,Arg^2,Tyr^4,His^6-AII] (H-VIPF-OH)
- secondary conformation parallel: 13%
- secondary conformation α-helix [2]: 9.6% and 9.7% (2×)
- IC50 [3]: 0.62 nM
- secondary conformation β-turn [4]: 21.7%
- secondary conformation random coil [5]: 40.4%
- MHC [6]: 10^−6 M

Compound: DRVYIAPF [Ala-replacement Ang II analogue from earlier work]
- biological (antiplasmodial) activity on P. gallinaceum sporozoites [7]: 79%

Compound: CC[C@H](C)[C@H](NC(=O)[C@H](Cc1ccc(O)cc1)NC(=O)[C@@H](NC(=O)[C@H](CCCNC(=N)N)NC(=O)[C@@H](N)CC(=O)O)C(C)C)C(=O)N[C@@H](Cc1cnc[nH]1)C(=O)N1CCC[C@H]1C(=O)N[C@@H](Cc1ccccc1)C(=O)O [Ang II, angiotensin II]
- haemolytic activity (% of distilled water control) [8]: did not present hemolytic effects
- MHC [6]: 10^−5 M

Compound: DRVYAHPF [Ala-replacement Ang II analogue from earlier work]
- biological (antiplasmodial) activity on P. gallinaceum sporozoites [7]: 75%

Compound: Arg-Val-Tyr-Ile-His-Pro-Phe [deletion analogue of Ang II, Ferreira et al]
- biological (antiplasmodial) activity on P. gallinaceum sporozoites [7]: about 50%

Compound: RYHIPF [Peptide 4, [Ile^4,His^3]-des-Asp^1,Val^3-AII]
- per cent of fluorescent mature sporozoites (Spz Fluorescence, antiplasmodial activity) [1]: 77%

Compound: DRVYDIHKPF (also: sidechain bridge or staple (positions not given here)) [VC-26, lactam bridged Ang II analogue of Chamlian et al]
- antiplasmodial activity against P. gallinaceum sporozoite [7]: 73%

Compound: Val-Tyr-Ile-His-Pro-Phe (VYIHPF; printed: Val-Tyr-Ile-His-Pro-Phe) [short peptide, Ferreira et al]
- biological (antiplasmodial) activity on P. gallinaceum sporozoites [7]: about 80%

Compound: [2-Nal^4]- des-Asp^1,Arg^2,Tyr^4,His^6-AII [Peptide 10]
- per cent of fluorescent mature sporozoites (Spz Fluorescence, antiplasmodial activity) [1]: 73%

Compound: Asp-Arg-Val-Tyr-Ile-His-Pro [deletion analogue of Ang II, Ferreira et al]
- biological (antiplasmodial) activity on P. gallinaceum sporozoites [7]: about 50%

Compound: N[C@@H](Cc1ccc(O)cc1)C(=O)N[C@@H](Cc1c[nH]cn1)C(=O)N1CCC[C@H]1C(=O)N[C@@H](Cc1ccccc1)C(=O)O [Peptide 5, des-Asp^1,Arg^2,Val^3,Ile^5-AII] (H-YHPF-OH)
- secondary conformation parallel: 12.1% and 13.4%
- secondary conformation α-helix [2]: 9.7% (2×) and 9.6%
- IC50 [3]: 0.89 nM
- secondary conformation β-turn [4]: 25.7%
- secondary conformation random coil [5]: 40.6% and 44.3% and 40.4%
- secondary conformation antiparallel [9]: 12% and 13.9%
- MHC [6]: 10^−5 M

Compound: Ile-His-Pro-Phe [short peptide, Ferreira et al]
- biological (antiplasmodial) activity on P. gallinaceum sporozoites [7]: about 80%

Compound: [2-Nal^3]- des-Asp^1,Arg^2,Tyr^4,His^6-AII [Peptide 9]
- per cent of fluorescent mature sporozoites (Spz Fluorescence, antiplasmodial activity) [1]: 70%

Compound: DRVYIDHKPF (also: sidechain bridge or staple (positions not given here)) [VC-12, lactam bridged Ang II analogue of Chamlian et al]
- antiplasmodial activity against P. gallinaceum sporozoite [7]: 87%

Compound: DRVYPF [Peptide 2, des-Ile^5,His^6-AII]
- per cent of fluorescent mature sporozoites (Spz Fluorescence, antiplasmodial activity) [1]: 64%

Compound: Val-Tyr-Ile-His-Pro [short peptide, Ferreira et al]
- biological (antiplasmodial) activity on P. gallinaceum sporozoites [7]: about 80%

Compound: CRDCVYIHPF (cysteine pairing not given here) [restrict peptide of Torres et al]
- reduction of the parasitaemia by restrict peptides [10]: active in two different parasite species

From publication PMC4634797, “New linear antiplasmodial peptides related to angiotensin II” (Malaria Journal, 2015)
